Drawing on publication PMC6131501, “Urate transporter inhibitor lesinurad is a selective peroxisome proliferator-activated receptor gamma modulator (sPPARγM) in vitro” (Scientific Reports, 2018), this text covers Gal4-PPARα transactivation, EC50 and PPARα activation efficacy for one compound.

This test deals with T1, PPARα (Homo sapiens, UniProt Q07869).
T1 construct: expressed in transfected cells; host or cells: HEK293T
T1 sequence (Q07869 239-466 limits assumed): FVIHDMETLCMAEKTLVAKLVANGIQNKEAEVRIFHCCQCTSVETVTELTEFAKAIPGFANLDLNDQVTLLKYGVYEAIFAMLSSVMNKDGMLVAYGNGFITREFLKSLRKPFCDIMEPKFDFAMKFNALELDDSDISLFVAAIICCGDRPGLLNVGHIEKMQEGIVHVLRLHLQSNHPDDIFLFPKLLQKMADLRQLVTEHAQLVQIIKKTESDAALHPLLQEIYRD
As to the kind of experiment: Gal4 hybrid reporter gene assay PPARα. In kind it is cell-based. The source says:
These in vitro test systems are based on a constitutively expressed hybrid receptor composed of the ligand binding domain of the respective human nuclear receptor and the DNA binding domain of the yeast receptor Gal4. A Gal4-inducible firefly luciferase serves as reporter gene and a constitutively expressed renilla luciferase is used for normalization of transfection efficacy and internal toxicity control[18],[19]. […] The Gal4-fusion receptor plasmids pFA-CMV-hPPARα-LBD[50], pFA-CMV-hPPARγ-LBD[50], pFA-CMV-hPPARδ-LBD[50], pFA-CMV-hLXRα-LBD[51], pFA-CMV-hLXRβ-LBD[51], pFA-CMV-hRXRα-LBD[52], pFA-CMV-hRXRβ-LBD[52], pFA-CMV-hRXRγ-LBD[52], pFA-CMV-hRARα-LBD[52], pFA-CMV-hRARβ-LBD[52], pFA-CMV-hRARγ-LBD[52], pFA-CMV-hFXR-LBD[53], pFA-CMV-hVDR-LBD[52], pFA-CMV-hCAR-LBD[52] and pFA-CMV-hPXR-LBD[52] coding for the hinge region and ligand binding domain (LBD) of the canonical isoform of the respective nuclear receptor have been reported previously. pFR-Luc (Stratagene) was used as reporter plasmid and pRL-SV40 (Promega) for normalization of transfection efficiency and cell growth.
HEK293T cells were grown in DMEM high glucose, supplemented with 10% FCS, sodium pyruvate (1 mM), penicillin (100 U/mL) and streptomycin (100 μg/mL) at 37 °C and 5% CO2. The day before transfection, HEK293T cells were seeded in 96-well plates (3·10^4 cells/well). Before transfection, medium was changed to Opti-MEM without supplements. Transient transfection was carried out using Lipofectamine LTX reagent (Invitrogen) according to the manufacturer’s protocol with pFR-Luc (Stratagene), pRL-SV40 (Promega) and the corresponding Gal4-fusion nuclear receptor plasmid. 5 h after transfection, medium was changed to Opti-MEM supplemented with penicillin (100 U/mL), streptomycin (100 μg/mL), now additionally containing 0.1% DMSO and the respective test compound or 0.1% DMSO alone as untreated control. Each concentration was tested in duplicates and each experiment was repeated independently at least three times. Following overnight (12-14 h) incubation with the test compounds, cells were assayed for luciferase activity using Dual-Glo™ Luciferase Assay System (Promega) according to the manufacturer’s protocol. Luminescence was measured with an Infinite M200 luminometer (Tecan Deutschland GmbH). […] Fold activation was obtained by dividing the mean RLU of a test compound at a respective concentration by the mean RLU of untreated control.

Take `O=C(O)CSc1nnc(Br)n1-c1ccc(C2CC2)c2ccccc12` [lesinurad]: the Gal4-PPARα transactivation entry (30 μM, compared with PPARγ) is recorded as “lower efficacy”. In addition, it took 20.8 ± 0.7 µM to reach a half-maximal effect (Gal4 hybrid reporter, HEK293T, 12-14 h, mean ± SEM, at least three experiments) (EC50). Besides, the PPARα activation efficacy (vs. 1 µM of PPARα agonist GW7647) came to 13.5 ± 0.5%.
